Data from ChEMBL document CHEMBL1201862, “PubChem BioAssay data set” (2004).
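Each compound was tested at five concentrations against cells in 96-well plates for 48 hours. The concentration for 50% growth inhibition is given as GI50.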 Calls of active or inactive are those of the source. Cut-off read from the data, not from the text of the source: active = GI50 up to about 1.1 µM and inactive = higher.

Legend:
Assay in all cases: growth of human tumour cells (NCI), 48 h
UACC-257 = tested on: UACC-257
RPMI-8226 = tested on: RPMI-8226
M14 = tested on: M14
NCI-H460 = tested on: NCI-H460
SF-268 = tested on: SF-268
OVCAR-5 = tested on: OVCAR-5
SNB-19 = tested on: SNB-19
HCT-116 = tested on: HCT-116
SN12C = tested on: SN12C
SW-620 = tested on: SW-620
NCI-H226 = tested on: NCI-H226
HOP-62 = tested on: HOP-62
CAKI-1 = tested on: CAKI-1
OVCAR-8 = tested on: OVCAR-8
KM12 = tested on: KM12
T47D = tested on: T47D
SK-OV-3 = tested on: SK-OV-3
ACHN = tested on: ACHN
UO-31 = tested on: UO-31
HCT-15 = tested on: HCT-15
MDA-MB-435 = tested on: MDA-MB-435
HCC 2998 = tested on: HCC 2998
SK-MEL-2 = tested on: SK-MEL-2
HT-29 = tested on: HT-29
HOP-92 = tested on: HOP-92
PC-3 = tested on: PC-3
SF-539 = tested on: SF-539
HL-60 = tested on: HL-60
Hs-578T = tested on: Hs-578T
NCI-H23 = tested on: NCI-H23
MDA-N = tested on: MDA-N
RXF 393 = tested on: RXF 393
A549 = tested on: A549
MCF7 = tested on: MCF7
DU-145 = tested on: DU-145
SK-MEL-28 = tested on: SK-MEL-28
SR = tested on: SR
MDA-MB-231 = tested on: MDA-MB-231
U-251 = tested on: U-251
UACC-62 = tested on: UACC-62
MOLT-4 = tested on: MOLT-4
786-0 = tested on: 786-0
NCI-H522 = tested on: NCI-H522
OVCAR-3 = tested on: OVCAR-3
SK-MEL-5 = tested on: SK-MEL-5
EKVX = tested on: EKVX
SF-295 = tested on: SF-295
TK-10 = tested on: TK-10
BT-549 = tested on: BT-549
K562 = tested on: K562
IGROV-1 = tested on: IGROV-1
NCI/ADR-RES = tested on: NCI/ADR-RES
Malme-3M = tested on: Malme-3M
COLO 205 = tested on: COLO 205
OVCAR-4 = tested on: OVCAR-4
SNB-75 = tested on: SNB-75
A498 = tested on: A498
CCRF-CEM = tested on: CCRF-CEM
LOX IMVI = tested on: LOX IMVI

For `O=C(Oc1c(Br)cc(Br)cc1C(=O)Oc1ccccc1)C(=O)Oc1c(Br)cc(Br)cc1C(=O)Oc1ccccc1`, the GI50 (UACC-257) was 39 µM (inactive), the GI50 (RPMI-8226) was 15.5 µM (inactive) and the GI50 (M14) was 34.1 µM (inactive). For the same compound, the GI50 (NCI-H460) was > 100 µM (inactive), the GI50 (SF-268) was 29 µM (inactive) and the GI50 (OVCAR-5) was 24.4 µM (inactive). The GI50 (SNB-19) was 20 µM (inactive), the GI50 (HCT-116) was 14.4 µM (inactive) and the GI50 (SN12C) was 30.3 µM (inactive). The GI50 (SW-620) was 19.8 µM (inactive), the GI50 (NCI-H226) was 16 µM (inactive) and the GI50 (HOP-62) was 16.2 µM (inactive). For the same compound, the GI50 (CAKI-1) was 19.7 µM (inactive), the GI50 (OVCAR-8) was 30.8 µM (inactive) and the GI50 (KM12) was 24 µM (inactive). The GI50 (T47D) was 27.1 µM (inactive), the GI50 (SK-OV-3) was 33.8 µM (inactive) and the GI50 (ACHN) was 27.7 µM (inactive). The GI50 (UO-31) was 16 µM (inactive), the GI50 (HCT-15) was 20.7 µM and the GI50 (MDA-MB-435) was 10.1 µM (inactive). The GI50 (HCC 2998) was 31 µM (inactive), the GI50 (SK-MEL-2) was 26.7 µM (inactive) and the GI50 (HT-29) was 32.7 µM (inactive). For the same compound, the GI50 (HOP-92) was 12 µM (inactive), the GI50 (PC-3) was 20.2 µM (inactive) and the GI50 (SF-539) was 19.7 µM (inactive). For the same compound, the GI50 (HL-60) was < 0.01 µM (active), the GI50 (Hs-578T) was 34.8 µM (inactive) and the GI50 (NCI-H23) was 0.621 µM (active). The GI50 (MDA-N) was 27.5 µM (inactive), the GI50 (RXF 393) was 12.9 µM (inactive) and the GI50 (A549) was 14.5 µM (inactive). For the same compound, the GI50 (MCF7) was 26.7 µM (inactive), the GI50 (DU-145) was 37.5 µM (inactive) and the GI50 (SK-MEL-28) was 28.7 µM (inactive). For the same compound, the GI50 (SR) was 18.5 µM (inactive), the GI50 (MDA-MB-231) was 12.1 µM (inactive) and the GI50 (U-251) was 13.1 µM (inactive). The GI50 (UACC-62) was 24.8 µM (inactive), the GI50 (MOLT-4) was 14.9 µM (inactive) and the GI50 (786-0) was 19.6 µM (inactive). The GI50 (NCI-H522) was 14.4 µM (inactive), the GI50 (OVCAR-3) was 24.3 µM (inactive) and the GI50 (SK-MEL-5) was 17.3 µM (inactive). For the same compound, the GI50 (EKVX) was 26.2 µM (inactive), the GI50 (SF-295) was 31 µM (inactive) and the GI50 (TK-10) was 49.2 µM (inactive). For the same compound, the GI50 (BT-549) was 18.5 µM (inactive), the GI50 (K562) was 12.7 µM (inactive) and the GI50 (IGROV-1) was 26.7 µM (inactive). For the same compound, the GI50 (NCI/ADR-RES) was 38.9 µM (inactive), the GI50 (Malme-3M) was 20.9 µM (inactive) and the GI50 (COLO 205) was 21.6 µM (inactive).
For `COC1=CC(=O)c2c(c(-c3nc(C)cs3)cn2C)C1=O`, the GI50 (UACC-257) was 1.82 µM (inactive), the GI50 (RPMI-8226) was 2.52 µM (inactive) and the GI50 (M14) was 2.13 µM (inactive). The GI50 (OVCAR-4) was 18.5 µM (inactive), the GI50 (NCI-H460) was 1.25 µM (inactive) and the GI50 (SF-268) was 6.44 µM (inactive). The GI50 (OVCAR-5) was 6.76 µM (inactive), the GI50 (SNB-19) was 4.23 µM (inactive) and the GI50 (HCT-116) was 2.99 µM (inactive). For the same compound, the GI50 (SN12C) was 5.79 µM (inactive), the GI50 (SW-620) was 3.24 µM (inactive) and the GI50 (NCI-H226) was 16.7 µM (inactive). The GI50 (HOP-62) was 3.05 µM (inactive), the GI50 (CAKI-1) was 5.97 µM (inactive) and the GI50 (OVCAR-8) was 4.56 µM (inactive). The GI50 (KM12) was 3.95 µM (inactive), the GI50 (T47D) was 20.1 µM (inactive) and the GI50 (SK-OV-3) was 41.2 µM (inactive). The GI50 (ACHN) was 4.73 µM (inactive), the GI50 (UO-31) was 4.53 µM (inactive) and the GI50 (HCT-15) was 1.28 µM. The GI50 (MDA-MB-435) was 0.409 µM (active), the GI50 (HCC 2998) was 4.28 µM (inactive) and the GI50 (SK-MEL-2) was 3.03 µM (inactive). For the same compound, the GI50 (HT-29) was 4.98 µM (inactive), the GI50 (SNB-75) was 1.75 µM (inactive) and the GI50 (A498) was 5.82 µM (inactive). The GI50 (HOP-92) was 14.9 µM (inactive), the GI50 (PC-3) was 5.96 µM (inactive) and the GI50 (SF-539) was 2.2 µM (inactive). For the same compound, the GI50 (HL-60) was 1.46 µM (inactive), the GI50 (CCRF-CEM) was 4.5 µM (inactive) and the GI50 (Hs-578T) was 2.21 µM (inactive). For the same compound, the GI50 (NCI-H23) was 2.25 µM (inactive), the GI50 (MDA-N) was 0.931 µM (active) and the GI50 (RXF 393) was 20.4 µM (inactive). For the same compound, the GI50 (A549) was 3.32 µM (inactive), the GI50 (MCF7) was 2.62 µM (inactive) and the GI50 (LOX IMVI) was 0.804 µM (active). For the same compound, the GI50 (DU-145) was 3.76 µM (inactive), the GI50 (SK-MEL-28) was 3.72 µM (inactive) and the GI50 (SR) was 4.95 µM (inactive). For the same compound, the GI50 (MDA-MB-231) was 15.7 µM (inactive), the GI50 (U-251) was 4.67 µM (inactive) and the GI50 (UACC-62) was 2.99 µM (inactive). The GI50 (MOLT-4) was 15.2 µM (inactive), the GI50 (786-0) was 18.1 µM (inactive) and the GI50 (NCI-H522) was 1.06 µM (active). The GI50 (OVCAR-3) was 1.75 µM (inactive), the GI50 (SK-MEL-5) was 1.2 µM (inactive) and the GI50 (EKVX) was 8.65 µM (inactive). For the same compound, the GI50 (SF-295) was 2.88 µM (inactive), the GI50 (TK-10) was 10.8 µM (inactive) and the GI50 (BT-549) was 3.97 µM (inactive). For the same compound, the GI50 (K562) was 2.62 µM (inactive), the GI50 (IGROV-1) was 4.29 µM (inactive) and the GI50 (NCI/ADR-RES) was 4 µM (inactive). For the same compound, the GI50 (COLO 205) was 12.4 µM (inactive).
